#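 The compound was tested at five concentrations on cells cultured in 96-well plates, with a 48-hour exposure period. Abbreviation: GI50, concentration required for 50% inhibition of growth.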 Calls of active or inactive are those of the source. No stated cut-off is given here; in the data, active = GI50 up to about 1.1 µM and inactive = higher. Non-standard residues stand in square brackets, D forms with d. Residues, ends and D or L forms follow the SMILES beside them. ξ: configuration not given here. *: point of attachment. NMeF = CN[C@@H](Cc1ccccc1)C(=O)O; NMeV = CN[C@H](C(=O)O)C(C)C; ξNMeV = CNC(C(=O)O)C(C)C; Boc = CC(C)(C)OC(=O)*; OBn = c1ccc(CO*)cc1
# How the values were obtained:
# Assay in all cases: NCI anticancer screen, dose series, 48 h
# HCC 2998 = tested on: HCC 2998
# OVCAR-5 = tested on: OVCAR-5
# SNB-75 = tested on: SNB-75
# DMS-114 = tested on: DMS-114
# ACHN = tested on: ACHN
# HL-60 = tested on: HL-60
# NCI-H226 = tested on: NCI-H226
# SK-MEL-2 = tested on: SK-MEL-2
# TK-10 = tested on: TK-10
# OVCAR-4 = tested on: OVCAR-4
# SR = tested on: SR
# SF-539 = tested on: SF-539
# SK-MEL-28 = tested on: SK-MEL-28
# A549 = tested on: A549
# HCT-15 = tested on: HCT-15
# UO-31 = tested on: UO-31
# SK-MEL-5 = tested on: SK-MEL-5
# K562 = tested on: K562
# HOP-92 = tested on: HOP-92
# SNB-78 = tested on: SNB-78
# A498 = tested on: A498
# CAKI-1 = tested on: CAKI-1
# COLO 205 = tested on: COLO 205
# EKVX = tested on: EKVX
# Malme-3M = tested on: Malme-3M
# SW-620 = tested on: SW-620
# SK-OV-3 = tested on: SK-OV-3
# SF-268 = tested on: SF-268
# NCI-H23 = tested on: NCI-H23
# OVCAR-8 = tested on: OVCAR-8
# RPMI-8226 = tested on: RPMI-8226
# HT-29 = tested on: HT-29
# HOP-62 = tested on: HOP-62
# U-251 = tested on: U-251
# OVCAR-3 = tested on: OVCAR-3
# M19-MEL = tested on: M19-MEL
# NCI-H460 = tested on: NCI-H460
# UACC-62 = tested on: UACC-62
# DMS-273 = tested on: DMS-273
# NCI-H522 = tested on: NCI-H522
# CCRF-CEM = tested on: CCRF-CEM
# IGROV-1 = tested on: IGROV-1
# KM-20L2 = tested on: KM-20L2
# HCT-116 = tested on: HCT-116
# KM12 = tested on: KM12
# HOP-18 = tested on: HOP-18
# SF-295 = tested on: SF-295
# SN12C = tested on: SN12C
# DLD-1 = tested on: DLD-1
# SNB-19 = tested on: SNB-19
# UACC-257 = tested on: UACC-257
# XF498 = tested on: XF498
# LXFL 529 = tested on: LXFL 529
# M14 = tested on: M14
# RXF 393 = tested on: RXF 393
# LOX IMVI = tested on: LOX IMVI
# 786-0 = tested on: 786-0
# MOLT-4 = tested on: MOLT-4
# RXF 631 = tested on: RXF 631
compound,measurement,setting,value
CC(C)C(C(=O)N(C)[C@H](C(=O)N1CCC[C@H]1C(=O)N(C)[C@@H](Cc1ccccc1)C(=O)OCc1ccccc1)C(C)C)N(C)C(=O)[C@@H](NC(=O)OC(C)(C)C)C(C)C (some centres undefined) (Boc-V[ξNMeV][NMeV]P[NMeF]-OBn),GI50,HCC 2998,> 10 µM (inactive)
same,GI50,OVCAR-5,> 31.6 µM (inactive)
same,GI50,SNB-75,12 µM (inactive)
same,GI50,DMS-114,11 µM (inactive)
same,GI50,ACHN,> 57.4 µM (inactive)
same,GI50,HL-60,4.58 µM (inactive)
same,GI50,NCI-H226,> 63.5 µM (inactive)
same,GI50,SK-MEL-2,> 31.6 µM (inactive)
same,GI50,TK-10,29.2 µM (inactive)
same,GI50,OVCAR-4,> 29.5 µM (inactive)
same,GI50,SR,7.36 µM (inactive)
same,GI50,SF-539,> 31.6 µM (inactive)
same,GI50,SK-MEL-28,> 31.6 µM (inactive)
same,GI50,A549,18.7 µM (inactive)
same,GI50,HCT-15,8.65 µM
same,GI50,UO-31,30.4 µM (inactive)
same,GI50,SK-MEL-5,7.14 µM (inactive)
same,GI50,K562,4.42 µM (inactive)
same,GI50,HOP-92,10.2 µM (inactive)
same,GI50,SNB-78,> 31.6 µM (inactive)
same,GI50,A498,19.5 µM (inactive)
same,GI50,CAKI-1,> 31.6 µM (inactive)
same,GI50,COLO 205,11.4 µM (inactive)
same,GI50,EKVX,> 31.6 µM (inactive)
same,GI50,Malme-3M,34.8 µM (inactive)
same,GI50,SW-620,> 31.6 µM (inactive)
same,GI50,SK-OV-3,> 31.6 µM (inactive)
same,GI50,SF-268,> 31.6 µM (inactive)
same,GI50,NCI-H23,19.5 µM (inactive)
same,GI50,OVCAR-8,> 31.6 µM (inactive)
same,GI50,RPMI-8226,4.97 µM (inactive)
same,GI50,HT-29,14.2 µM (inactive)
same,GI50,HOP-62,> 31.6 µM (inactive)
same,GI50,U-251,> 31.6 µM (inactive)
same,GI50,OVCAR-3,15.3 µM (inactive)
same,GI50,M19-MEL,30 µM (inactive)
same,GI50,NCI-H460,15.8 µM (inactive)
same,GI50,UACC-62,> 31.6 µM (inactive)
same,GI50,DMS-273,5.48 µM (inactive)
same,GI50,NCI-H522,> 100 µM (inactive)
same,GI50,CCRF-CEM,11.2 µM (inactive)
same,GI50,IGROV-1,22.5 µM (inactive)
same,GI50,KM-20L2,> 31.6 µM (inactive)
same,GI50,HCT-116,10.8 µM (inactive)
same,GI50,KM12,> 10 µM (inactive)
same,GI50,HOP-18,32.1 µM (inactive)
same,GI50,SF-295,19.8 µM (inactive)
same,GI50,SN12C,> 100 µM (inactive)
same,GI50,DLD-1,24.9 µM (inactive)
same,GI50,SNB-19,> 31.6 µM (inactive)
same,GI50,UACC-257,9.33 µM (inactive)
same,GI50,XF498,6.19 µM (inactive)
same,GI50,LXFL 529,15.1 µM (inactive)
same,GI50,M14,85.1 µM (inactive)
same,GI50,RXF 393,24.6 µM (inactive)
same,GI50,LOX IMVI,23.9 µM (inactive)
same,GI50,786-0,> 43.3 µM (inactive)
same,GI50,MOLT-4,5.37 µM (inactive)
Cc1ccc(C2C(Cl)C(=O)N2n2cnc3ccccc3c2=O)cc1 (centres undefined),GI50,HCC 2998,> 100 µM (inactive)
same,GI50,OVCAR-5,> 100 µM (inactive)
same,GI50,SNB-75,91.6 µM (inactive)
same,GI50,DMS-114,> 100 µM (inactive)
same,GI50,ACHN,> 100 µM (inactive)
same,GI50,HL-60,29.6 µM (inactive)
same,GI50,NCI-H226,26 µM (inactive)
same,GI50,SK-MEL-2,> 100 µM (inactive)
same,GI50,TK-10,> 100 µM (inactive)
same,GI50,OVCAR-4,65.9 µM (inactive)
same,GI50,SR,21.5 µM (inactive)
same,GI50,SK-MEL-28,> 100 µM (inactive)
same,GI50,A549,> 100 µM (inactive)
same,GI50,HCT-15,> 100 µM
same,GI50,UO-31,23.4 µM (inactive)
same,GI50,SK-MEL-5,82.2 µM (inactive)
same,GI50,K562,52.2 µM (inactive)
same,GI50,SNB-78,> 100 µM (inactive)
same,GI50,CAKI-1,> 100 µM (inactive)
same,GI50,COLO 205,> 100 µM (inactive)
same,GI50,EKVX,26.5 µM (inactive)
same,GI50,Malme-3M,> 100 µM (inactive)
same,GI50,SW-620,> 100 µM (inactive)
same,GI50,SK-OV-3,67.3 µM (inactive)
same,GI50,SF-268,> 100 µM (inactive)
same,GI50,NCI-H23,> 100 µM (inactive)
same,GI50,OVCAR-8,> 100 µM (inactive)
same,GI50,RPMI-8226,37.3 µM (inactive)
same,GI50,HT-29,> 100 µM (inactive)
same,GI50,HOP-62,> 100 µM (inactive)
same,GI50,U-251,> 100 µM (inactive)
same,GI50,OVCAR-3,81.1 µM (inactive)
same,GI50,M19-MEL,> 100 µM (inactive)
same,GI50,NCI-H460,> 100 µM (inactive)
same,GI50,UACC-62,99.8 µM (inactive)
same,GI50,DMS-273,> 100 µM (inactive)
same,GI50,NCI-H522,> 100 µM (inactive)
same,GI50,CCRF-CEM,> 100 µM (inactive)
same,GI50,IGROV-1,> 100 µM (inactive)
same,GI50,KM-20L2,> 100 µM (inactive)
same,GI50,HCT-116,89.3 µM (inactive)
same,GI50,KM12,> 100 µM (inactive)
same,GI50,HOP-18,18.1 µM (inactive)
same,GI50,SF-295,> 100 µM (inactive)
same,GI50,SN12C,> 100 µM (inactive)
same,GI50,DLD-1,> 100 µM (inactive)
same,GI50,SNB-19,44 µM (inactive)
same,GI50,UACC-257,42 µM (inactive)
same,GI50,XF498,> 100 µM (inactive)
same,GI50,LXFL 529,> 100 µM (inactive)
same,GI50,M14,> 100 µM (inactive)
same,GI50,RXF 393,> 100 µM (inactive)
same,GI50,LOX IMVI,> 100 µM (inactive)
same,GI50,786-0,> 100 µM (inactive)
same,GI50,MOLT-4,39.4 µM (inactive)
C=CC1C2=C(C(=O)NCC2)C2OC(O)C3=C(CCNC3=O)C2C1C (centres undefined),GI50,OVCAR-5,> 100 µM (inactive)
same,GI50,DMS-114,> 100 µM (inactive)
same,GI50,ACHN,> 100 µM (inactive)
same,GI50,HL-60,> 100 µM (inactive)
same,GI50,TK-10,> 100 µM (inactive)
same,GI50,SR,> 100 µM (inactive)
same,GI50,SK-MEL-28,> 100 µM (inactive)
same,GI50,A549,> 100 µM (inactive)
same,GI50,UO-31,> 100 µM (inactive)
same,GI50,RXF 631,> 100 µM (inactive)
same,GI50,HOP-92,> 100 µM (inactive)
same,GI50,SNB-78,> 100 µM (inactive)
same,GI50,EKVX,> 100 µM (inactive)
same,GI50,SK-OV-3,> 100 µM (inactive)
same,GI50,SF-268,> 100 µM (inactive)
same,GI50,NCI-H23,> 100 µM (inactive)
same,GI50,U-251,> 100 µM (inactive)
same,GI50,UACC-62,> 100 µM (inactive)
same,GI50,NCI-H522,> 100 µM (inactive)
same,GI50,CCRF-CEM,> 100 µM (inactive)
same,GI50,IGROV-1,> 100 µM (inactive)
same,GI50,HCT-116,> 100 µM (inactive)
same,GI50,KM12,> 100 µM (inactive)
same,GI50,SNB-19,> 100 µM (inactive)
same,GI50,RXF 393,> 100 µM (inactive)
same,GI50,MOLT-4,> 100 µM (inactive)

# Reference: ChEMBL document CHEMBL1201862, “PubChem BioAssay data set” (2004)
